This passage reports IC50 results from BindingDB's records for patent US11180503 (ELI LILLY AND COMPANY, 2021).

The target of this assay is Dual specificity calcium/calmodulin-dependent 3',5'-cyclic nucleotide phosphodiesterase 1B (Homo sapiens, UniProt Q01064). Put plainly: Ca2+-Calmodulin Dependent PDE Enzyme Assays. On the procedure: PDE1B, PDE1A, and PDE1C are cloned and purified following standard protein generation procedures. The assay buffer is prepared to give a final concentration in the assay of 50 mM Tris-HCl, 50 mM MgCl2, 4 mM CaCl2, 0.1% Bovine serum albumin and 6 U/ml Calmodulin in water, at pH 7.5.
Chain of Dual specificity calcium/calmodulin-dependent 3',5'-cyclic nucleotide phosphodiesterase 1B (Q01064 whole entry): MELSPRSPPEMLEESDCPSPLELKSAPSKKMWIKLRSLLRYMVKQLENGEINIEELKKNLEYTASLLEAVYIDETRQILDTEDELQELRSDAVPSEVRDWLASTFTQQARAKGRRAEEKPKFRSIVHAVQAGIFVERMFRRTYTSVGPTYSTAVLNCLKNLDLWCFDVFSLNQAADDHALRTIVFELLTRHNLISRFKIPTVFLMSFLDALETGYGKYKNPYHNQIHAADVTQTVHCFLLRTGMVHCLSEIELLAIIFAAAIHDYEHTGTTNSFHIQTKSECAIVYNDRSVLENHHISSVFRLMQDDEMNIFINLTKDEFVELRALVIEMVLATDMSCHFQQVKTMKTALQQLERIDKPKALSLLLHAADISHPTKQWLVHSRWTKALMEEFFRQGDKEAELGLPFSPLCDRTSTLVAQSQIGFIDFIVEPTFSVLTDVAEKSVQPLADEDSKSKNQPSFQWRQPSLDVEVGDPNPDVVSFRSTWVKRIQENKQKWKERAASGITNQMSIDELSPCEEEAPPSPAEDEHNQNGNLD

pIC50: −log10 of the molar value.

In general, pIC50 refers to −log10 of the IC50, conventionally taken in molar units. Take `CCCCn1c(=O)c2nnc(C3(C4CC4)CC3)n2c2ncc(CO)cc21` [US11180503, Example 11]: the pIC50 was 9.03.
In the case of `CCCCn1c(=O)c2nnc(C3(C4CC4)CC3)n2c2ncc(CC)cc21` [US11180503, Example 9] it was 9.38.
